Measured values: US9902703B2, “Somatostatin modulators and uses thereof” (Crinetics Pharmaceuticals, Inc., priority 2015, dated 2018)

Target: T1, human somatostatin receptor subtype 2 (Homo sapiens, UniProt P30874)
T1 construct: expressed in transfected cells; host or cells: CHO (Chinese hamster ovary) cells, G-418 selected
Experiment: cAMP assay (functional assay for SSTR2 agonists)
Format: cell-based
Conditions: CHO cells expressing human SSTR2; intracellular cAMP with forskolin, HTRF; read-out: SSTR2a EC50
Procedure, shortened: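 CHO cells expressing human SSTR2 were treated with compound for 15 min at 37° C in buffer with forskolin, 0.2 mM IBMX and 0.1% BSA. Intracellular cAMP was read by HTRF after 1-24 h lysis at room temperature, and EC50 came from cAMP versus compound concentration curves.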

T1 sequence (P30874 whole entry): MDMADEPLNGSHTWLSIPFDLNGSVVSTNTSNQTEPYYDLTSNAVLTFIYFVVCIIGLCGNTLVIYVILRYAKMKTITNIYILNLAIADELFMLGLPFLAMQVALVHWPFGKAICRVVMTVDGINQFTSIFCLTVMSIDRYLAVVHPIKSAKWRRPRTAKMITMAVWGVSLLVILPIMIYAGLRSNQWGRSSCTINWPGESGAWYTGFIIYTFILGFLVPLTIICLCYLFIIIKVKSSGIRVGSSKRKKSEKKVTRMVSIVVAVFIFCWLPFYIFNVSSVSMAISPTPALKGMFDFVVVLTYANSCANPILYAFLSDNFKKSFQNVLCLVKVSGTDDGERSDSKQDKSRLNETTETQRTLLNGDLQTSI

SMILES	EC50
Cc1cc(Cl)cc(N2C=Nc3cc(C)c(-c4cc(F)ccc4C)cc3C2C(=O)N(C)C[C@@H]2CCCN2)c1 (stereo partly drawn) [Compound 2-13, 3-(3-chloro-5-methylphenyl)-6-(5-fluoro-2-methylphenyl)-N,7-dimethyl-N-[(2S)-pyrrolidin-2-ylmethyl]-3,4-dihydroquinazoline-4-carboxamide]	< 100 nM
Cc1cc(Cl)cc(N2C=Nc3cc(C)c(-c4cc(C(N)=O)ccn4)cc3C2C(=O)N(C)C[C@@H]2CCCN2)c1 (stereo partly drawn) [Compound 2-14, 6-(4-carbamoylpyridin-2-yl)-3-(3-chloro-5-methylphenyl)-N,7-dimethyl-N-[(2S)-pyrrolidin-2-ylmethyl]-3,4-dihydroquinazoline-4-carboxamide]	100 to 1000 nM
COc1cc(C)cc(-c2cc3c(cc2C)N=CN(c2cc(C)cc(Cl)c2)C3C(=O)N(C)C[C@@H]2CCCN2)c1 (stereo partly drawn) [Compound 2-15, 3-(3-chloro-5-methylphenyl)-6-(3-methoxy-5-methylphenyl)-N,7-dimethyl-N-[(2S)-pyrrolidin-2-ylmethyl]-3,4-dihydroquinazoline-4-carboxamide]	< 100 nM
COc1cc(-c2cc3c(cc2C)N=CN(c2cc(C)cc(Cl)c2)C3C(=O)N(C)C[C@@H]2CCCN2)ccc1C (stereo partly drawn) [Compound 2-16, 3-(3-chloro-5-methylphenyl)-6-(3-methoxy-4-methylphenyl)-N,7-dimethyl-N-[(2S)-pyrrolidin-2-ylmethyl]-3,4-dihydroquinazoline-4-carboxamide]	< 100 nM
Cc1cc(Cl)cc(N2C=Nc3cc(C)c(-c4cc(Cl)cc(C5(C#N)CC5)c4)cc3C2C(=O)N(C)C[C@@H]2CCCN2)c1 (stereo partly drawn) [Compound 2-17, 6-[3-chloro-5-(1-cyanocyclopropyl)phenyl]-3-(3-chloro-5-methylphenyl)-N,7-dimethyl-N-[(2S)-pyrrolidin-2-ylmethyl]-3,4-dihydroquinazoline-4-carboxamide]	< 100 nM
Cc1cc(Cl)cc(N2C=Nc3cc(C)c(-c4cncc(C#N)c4)cc3C2C(=O)N(C)C[C@@H]2CCCN2)c1 (stereo partly drawn) [Compound 2-18, 3-(3-chloro-5-methylphenyl)-6-(5-cyanopyridin-3-yl)-N,7-dimethyl-N-[(2S)-pyrrolidin-2-ylmethyl]-3,4-dihydroquinazoline-4-carboxamide]	< 100 nM
Cc1cc(Cl)cc(N2C=Nc3cc(C)c(-c4cc(C(F)(F)F)cnc4Cl)cc3C2C(=O)N(C)C[C@@H]2CCCN2)c1 (stereo partly drawn) [Compound 2-19, 6-[2-chloro-5-(trifluoromethyl)pyridin-3-yl]-3-(3-chloro-5-methylphenyl)-N,7-dimethyl-N-[(2S)-pyrrolidin-2-ylmethyl]-3,4-dihydroquinazoline-4-carboxamide]	< 100 nM
Cc1cc(Cl)cc(N2C=Nc3cc(C)c(-c4cc(F)cc(C(F)(F)F)c4)cc3C2C(=O)N(C)C[C@@H]2CCCN2)c1 (stereo partly drawn) [Compound 2-20, 3-(3-chloro-5-methylphenyl)-6-[3-fluoro-5-(trifluoromethyl)phenyl]-N,7-dimethyl-N-[(2S)-pyrrolidin-2-ylmethyl]-3,4-dihydroquinazoline-4-carboxamide]	< 100 nM
Cc1cc(Cl)cc(N2C=Nc3cc(C)c(-c4cc(O)cc(F)c4)cc3C2C(=O)N(C)C[C@@H]2CCCN2)c1 (stereo partly drawn) [Compound 2-21, 3-(3-chloro-5-methylphenyl)-6-(3-fluoro-5-hydroxyphenyl)-N,7-dimethyl-N-[(2S)-pyrrolidin-2-ylmethyl]-3,4-dihydroquinazoline-4-carboxamide]	< 100 nM
COc1cc(C#N)cc(-c2cc3c(cc2C)N=CN(c2cc(C)cc(Cl)c2)C3C(=O)N(C)C[C@@H]2CCCN2)c1 (stereo partly drawn) [Compound 2-24, 3-(3-chloro-5-methylphenyl)-6-(3-cyano-5-methoxyphenyl)-N,7-dimethyl-N-[(2S)-pyrrolidin-2-ylmethyl]-3,4-dihydroquinazoline-4-carboxamide]	< 100 nM
Cc1cc(Cl)cc(N2C=Nc3cc(C)c(-c4cc(C)oc4C)cc3C2C(=O)N(C)C[C@@H]2CCCN2)c1 (stereo partly drawn) [Compound 2-25, 3-(3-chloro-5-methylphenyl)-6-(2,5-dimethylfuran-3-yl)-N,7-dimethyl-N-[(2S)-pyrrolidin-2-ylmethyl]-3,4-dihydroquinazoline-4-carboxamide]	100 to 1000 nM
Cc1cc(Cl)cc(N2C=Nc3cc(C)c(-c4ccncc4Cl)cc3C2C(=O)N(C)C[C@@H]2CCCN2)c1 (stereo partly drawn) [Compound 2-26, 3-(3-chloro-5-methylphenyl)-6-(3-chloropyridin-4-yl)-N,7-dimethyl-N-[(2S)-pyrrolidin-2-ylmethyl]-3,4-dihydroquinazoline-4-carboxamide]	100 to 1000 nM
Cc1cc(Cl)cc(N2C=Nc3cc(C)c(-c4ccnc(C#N)c4)cc3C2C(=O)N(C)C[C@@H]2CCCN2)c1 (stereo partly drawn) [Compound 2-27, 3-(3-chloro-5-methylphenyl)-6-(2-cyanopyridin-4-yl)-N,7-dimethyl-N-[(2S)-pyrrolidin-2-ylmethyl]-3,4-dihydroquinazoline-4-carboxamide]	100 to 1000 nM
COc1c(C#N)cccc1-c1cc2c(cc1C)N=CN(c1cc(C)cc(Cl)c1)C2C(=O)N(C)C[C@@H]1CCCN1 (stereo partly drawn) [Compound 2-28, 3-(3-chloro-5-methylphenyl)-6-(3-cyano-2-methoxyphenyl)-N,7-dimethyl-N-[(2S)-pyrrolidin-2-ylmethyl]-3,4-dihydroquinazoline-4-carboxamide]	< 100 nM
Cc1cc(Cl)cc(N2C=Nc3cc(C)c(-c4cc(C(N)=O)ccc4Cl)cc3C2C(=O)N(C)C[C@@H]2CCCN2)c1 (stereo partly drawn) [Compound 2-29, 6-(5-carbamoyl-2-chlorophenyl)-3-(3-chloro-5-methylphenyl)-N,7-dimethyl-N-[(2S)-pyrrolidin-2-ylmethyl]-3,4-dihydroquinazoline-4-carboxamide]	< 100 nM
COc1cccc(-c2cc3c(cc2C)N=CN(c2cc(C)cc(Cl)c2)C3C(=O)N(C)C[C@@H]2CCCN2)c1C#N (stereo partly drawn) [Compound 2-30, 3-(3-chloro-5-methylphenyl)-6-(2-cyano-3-methoxyphenyl)-N,7-dimethyl-N-[(2S)-pyrrolidin-2-ylmethyl]-3,4-dihydroquinazoline-4-carboxamide]	< 100 nM
Cc1cc(Cl)cc(N2C=Nc3cc(C)c(-c4cccc(O)c4C#N)cc3C2C(=O)N(C)C[C@@H]2CCCN2)c1 (stereo partly drawn) [Compound 2-31, 3-(3-chloro-5-methylphenyl)-6-(2-cyano-3-hydroxyphenyl)-N,7-dimethyl-N-[(2S)-pyrrolidin-2-ylmethyl]-3,4-dihydroquinazoline-4-carboxamide]	100 to 1000 nM
Cc1cc(Cl)cc(N2C=Nc3cc(C)c(-c4ccc(O)c(F)c4)cc3C2C(=O)N(C)C[C@@H]2CCCN2)c1 (stereo partly drawn) [Compound 2-32, 3-(3-chloro-5-methylphenyl)-6-(3-fluoro-4-hydroxyphenyl)-N,7-dimethyl-N-[(2S)-pyrrolidin-2-ylmethyl]-3,4-dihydroquinazoline-4-carboxamide]	< 100 nM
Cc1cc(Cl)cc(N2C=Nc3cc(C)c(-c4ccc5[nH]c(=O)[nH]c5c4)cc3C2C(=O)N(C)C[C@@H]2CCCN2)c1 (stereo partly drawn) [Compound 2-34, 3-(3-chloro-5-methylphenyl)-N,7-dimethyl-6-(2-oxo-2,3-dihydro-1H-1,3-benzodiazol-5-yl)-N-[(2S)-pyrrolidin-2-ylmethyl]-3,4-dihydroquinazoline-4-carboxamide]	< 100 nM
COc1cc(F)cc(-c2cc3c(cc2C)N=CN(c2cc(C)cc(Cl)c2)C3C(=O)N(C)C[C@@H]2CCCN2)c1 (stereo partly drawn) [Compound 2-35, 3-(3-chloro-5-methylphenyl)-6-(3-fluoro-5-methoxyphenyl)-N,7-dimethyl-N-[(2S)-pyrrolidin-2-ylmethyl]-3,4-dihydroquinazoline-4-carboxamide]	< 100 nM
